Article PMC12023740, “Semi-synthesis and biological activities of heterocyclic compounds containing camphor” (RSC Advances, 2025)
Blank lines part the entries; values can stand above or below the molecule they belong to.

Experiments:
[1] = tested on: MCF-7 breast carcinoma cells; experiment: MTT cytotoxicity assay, MCF-7; assay type: cell-based, human; conditions: mean ± SD of three experiments
Procedure: (§1) MCF-7 Adenocarcinoma of the breast in humans and A549 […] lines of cells (purchased from Labco's Sigma-Aldrich) were employed to evaluate the newly synthesized compounds' anti-cancer potential. […] The American type culture collection provided the cell lines and were cultured in 10% FBS added to DMEM (Invitrogen/Life Technologies) (Hyclone), a 10 μg ml^−1 of insulin (Sigma), and a 1% penicillin-streptomycin. The suppliers of all other chemicals and reagents were either Invitrogen or Sigma.
(§2) For the MTT assay, cells were plated at a density of 1.2 to 1.8 × 10 000 cells per well in a total volume of 200 μl, comprising 100 μl of a full growing medium and 100 μl of the substance that was evaluated in each well. The cells were then incubated for 24 hours.
(§3) Aspirate the cells gently using a pipette after adding 6.0 to 8.0 ml of full growth media. […] Transfer the proper aliquots to new culture vessels, discard the supernatant, and resuspend the cell pellet in fresh growth media. For a full day, incubate the cultures at 37 °C. […] To perform the MTT assay, examine the plates using an inverted microscope.
(§4) Additionally, incorporate a blank control containing complete medium without any cells. Remove the cultures from the incubator and transfer them to a laminar flow hood or sterile workspace. […] Add the reconstituted MTT in an amount equal to 10% of the total volume of the culture medium. Return the cultures to the incubator for 2 to 4 hours, depending on the cell type and maximum cell density; typically, 2 hours is adequate, though longer incubation may be required for low-density or less metabolically active cells. It is important to maintain consistent incubation times for accurate comparisons.
(§5) Gentle mixing with a gyratory shaker will facilitate the dissolution of the crystals. In denser cultures, pipetting up and down may be necessary to ensure complete dissolution of the MTT formazan crystals. Measure the absorbance spectrophotometrically at 570 nm and assess the background absorbance of the multi-well plates at 690 nm, which should be subtracted from the 570 nm measurement. The tests in multi-well plates can be read using an appropriate plate reader, or the contents can be transferred to cuvettes for measurement.

A549 lung cancer cells = experiment: MTT cytotoxicity assay, A549; assay type: cell-based, human; conditions: mean ± SD of three experiments
Procedure: as §1, §2, §3, §4, §5

EGFR^WT = target: T1, EGFR^WT (Homo sapiens, UniProt P00533); experiment: EGFR Kinase Assay Kit (Catalog # 40321), Kinase-Glo Max luminescence; assay type: biochemical; conditions: five concentrations, read-out: EGFR kinase inhibitory activity IC50
T1 construct: purchased 40321
T1 sequence (P00533 668-1210 limits assumed): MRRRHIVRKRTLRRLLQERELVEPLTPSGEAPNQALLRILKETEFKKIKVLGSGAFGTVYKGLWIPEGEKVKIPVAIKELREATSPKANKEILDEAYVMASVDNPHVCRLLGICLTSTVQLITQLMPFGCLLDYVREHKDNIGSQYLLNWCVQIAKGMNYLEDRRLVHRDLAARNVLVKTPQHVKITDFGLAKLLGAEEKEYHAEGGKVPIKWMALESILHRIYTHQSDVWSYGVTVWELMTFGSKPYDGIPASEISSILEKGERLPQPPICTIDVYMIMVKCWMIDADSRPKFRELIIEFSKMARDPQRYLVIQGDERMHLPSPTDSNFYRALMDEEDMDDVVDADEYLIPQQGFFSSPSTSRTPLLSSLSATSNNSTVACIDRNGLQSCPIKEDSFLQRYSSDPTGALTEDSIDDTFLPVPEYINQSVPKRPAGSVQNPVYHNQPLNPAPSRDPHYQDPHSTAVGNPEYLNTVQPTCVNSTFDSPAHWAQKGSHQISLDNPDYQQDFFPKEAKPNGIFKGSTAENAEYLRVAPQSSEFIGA

SMILES: COc1cccc2c1C(=O)c1c(O)c3c(c(O)c1C2=O)C[C@@](O)(C(=O)CO)C[C@@H]3O[C@H]1C[C@H](N)[C@H](O)[C@H](C)O1 [Doxorubicin, reference compound]
IC50 ([1]; Homo sapiens, MCF7, MTT test): 3.1 µM | IC50 ([1]; MTT test): 3.12 ± 0.11 µM | IC50 (A549 lung cancer cells; Homo sapiens, A549, MTT test): 2.43 ± 0.08 µM

SMILES: CC12CCC(C/C1=N/N=c1\[nH]c(-c3ccc(Cl)cc3)cs1)C2(C)C (stereo not shown) [Compound 16b]
IC50 ([1]; Homo sapiens, MCF7, MTT test): 8.29 ± 0.3 µM | IC50 (A549 lung cancer cells; Homo sapiens, A549, MTT test): 15.2 ± 0.53 µM

SMILES: CC12CCC(C/C1=N/N=c1\[nH]c(-c3ccc(Br)cc3)cs1)C2(C)C (stereo not shown) [Compound 16c]
IC50 ([1]; Homo sapiens, MCF7, MTT test): 2.84 ± 0.1 µM | IC50 (A549 lung cancer cells; Homo sapiens, A549, MTT test): 1.29 ± 0.04 µM

SMILES: CC(=O)C1C(=O)NC(=O)NC12CC1(C)CCC2C1(C)C (stereo not shown) [Compound 12, 5′-Acetyl-4,7,7-trimethyl-1′H-spiro[bicyclo[2.2.1]heptane-2,4′-pyrimidine]-2′,6′(3′H,5′H)-dione]
IC50 ([1]; Homo sapiens, MCF7, MTT test): 3.2 ± 0.12 µM | IC50 (A549 lung cancer cells; Homo sapiens, A549, MTT test): 14.4 ± 0.5 µM

SMILES: CC12CCC(C3(C1)NC(=S)NC(=N)C3C#N)C2(C)C (stereo not shown) [Compound 6, 6′-Imino-4,7,7-trimethyl-2′-thioxotetrahydro-1′H-spiro[bicyclo[2.2.1]heptane-2,4′-pyrimidine]-5′-carbonitrile]
IC50 ([1]; Homo sapiens, MCF7, MTT test): 19.9 ± 0.73 µM | IC50 (A549 lung cancer cells; Homo sapiens, A549, MTT test): 28.5 ± 0.99 µM

SMILES: CC12CCC(C3(C1)NC(=S)NC(=O)C3C#N)C2(C)C (stereo not shown) [Compound 7, 4,7,7-Trimethyl-6′-oxo-2′-thioxotetrahydro-1′H-spiro[bicyclo[2.2.1]heptane-2,4′-pyrimidine]-5′-carbonitrile]
IC50 ([1]; Homo sapiens, MCF7, MTT test): 10.1 ± 0.39 µM | IC50 (A549 lung cancer cells; Homo sapiens, A549, MTT test): 22.2 ± 0.77 µM

SMILES: CC12CCC(C3(C1)NC(=O)NC(=O)C3C#N)C2(C)C (stereo not shown) [Compound 11, 4,7,7-Trimethyl-2′,6′-dioxotetrahydro-1′H-spiro[bicyclo[2.2.1]heptane-2,4′-pyrimidine]-5′-carbonitrile]
IC50 ([1]; Homo sapiens, MCF7, MTT test): 35 ± 1.32 µM | IC50 (A549 lung cancer cells; Homo sapiens, A549, MTT test): 56.6 ± 2.01 µM

SMILES: C#Cc1cccc(Nc2ncnc3cc(OCCOC)c(OCCOC)cc23)c1 [Erlotinib, reference compound]
IC50 ([1]; Homo sapiens, MCF7, MTT test): 13.9 ± 1.3 µM

SMILES: Cc1ccc(-c2cs/c(=N/N=C3/CC4CCC3(C)C4(C)C)[nH]2)cc1 (stereo not shown) [Compound 16a]
IC50 ([1]; Homo sapiens, MCF7, MTT test): 2.16 ± 0.08 µM | IC50 (A549 lung cancer cells; Homo sapiens, A549, MTT test): 4.13 ± 0.14 µM

SMILES: CC(=O)C1C(=O)NC(=S)NC12CC1(C)CCC2C1(C)C (stereo not shown) [Compound 8, 5′-Acetyl-4,7,7-trimethyl-2′-thioxodihydro-1′H-spiro[bicyclo[2.2.1]heptane-2,4′-pyrimidin]-6′(5′H)-one]
IC50 ([1]; Homo sapiens, MCF7, MTT test): 6.15 ± 0.23 µM | IC50 (A549 lung cancer cells; Homo sapiens, A549, MTT test): 3.34 ± 0.12 µM

SMILES: CC12CCC(C3(C1)NC(=O)NC(=N)C3C#N)C2(C)C (stereo not shown) [Compound 10, 6′-Imino-4,7-trimethyl-2′-oxotetrahydro-1′H-spiro[bicyclo[2.2.1]heptane-2,4′-pyrimidine]-5′-carbonitrile]
IC50 ([1]; Homo sapiens, MCF7, MTT test): 12.7 ± 0.47 µM | IC50 (A549 lung cancer cells; Homo sapiens, A549, MTT test): 23.3 ± 0.81 µM

SMILES: Cc1nc(Nc2ncc(C(=O)Nc3c(C)cccc3Cl)s2)cc(N2CCN(CCO)CC2)n1 [Dasatinib, reference compound]
IC50 ([1]; Homo sapiens, MCF7, MTT test): 7.99 ± 0.29 µM | IC50 (A549 lung cancer cells; Homo sapiens, A549, MTT test): 11.8 µM | IC50 (A549 lung cancer cells; MTT test): 11.8 ± 0.41 µM

IC50 (EGFR^WT): 0.198 µM
SMILES: CC12CCC(C/C1=N/N=C/c1cn(-c3ccc(S(N)(=O)=O)cc3)nc1-c1ccc(Br)cc1)C2(C)C (stereo not shown) [Compound 20]
IC50 ([1]; Homo sapiens, MCF7, MTT test): 0.78 ± 0.03 µM | IC50 (A549 lung cancer cells; Homo sapiens, A549, MTT test): 1.69 ± 0.06 µM
